Assay results as given in US20240376068A1, “SIGMA LIGAND COMPOUNDS AND USES THEREOF” (Minerva Neurosciences, Inc., priority 2020, published 2024).
pIC50, pKi: −log10 of the molar value. Like-named read-outs stand apart in the source and are kept apart here.

Legend:
α1b (h) [1] = biological target: T1, α1b (h) (Homo sapiens (Human), UniProt P35368); test: α1B adrenergic antagonist effect assay; type: cell-based; conditions: CHO cells
α1d (h) [2] = biological target: T2, α1d (h) (Homo sapiens (Human), UniProt P25100); test: α1D adrenergic agonist effect assay; type: cell-based; conditions: CHO cells
sigma 1 (h) = sigma 1 (h) (Homo sapiens (Human), UniProt Q99720); test: Sigma-1 binding assay
Protocol: (§1) Assays for determining Sigma-1 and Sigma-2 binding values were performed according to Ganapathy, M. E. et al. (1999), J. Pharmacol. Exp. Ther., 289:251-260.

α1a (h) [3] = biological target: T3, α1a (h) (Homo sapiens (Human), UniProt P35348); test: α1A adrenergic agonist effect assay; type: cell-based; conditions: for pIC50: agonist effect, CHO cells; for activation at 1 µM: α1A(h) agonist effect, read-out: % stimulation relative to control (1 μM)
Protocol: Assays for determining the agonist effect on α1A (h) were performed according to the procedure described in Example 21, and the results are represented in Table D below.

5-HT2A (h) = 5-HT2A (h) (Homo sapiens (Human), UniProt P28223); test: 5-HT2A binding assay; conditions: antagonist radioligand, HEK-293 cells
Protocol: Assays for determining 5-HT2A binding values were performed according to: Bonhaus, D. W. et al. (1995), Brit. J. Pharmacol., 115:622-628; Schwinn, D. A. et al. (1995), J. Pharmacol. Exp. Ther., 272:134-142; and Vicentic, A. et al. (2002), J. Pharmacol. Exp. Ther., 302:58-65; Bylund D B et al. (1994), Pharmacol. Rev. 46:121-136. Each of which is incorporated by reference in its entirety.

hERG = hERG (Homo sapiens (Human), UniProt Q12809); test: hERG inhibition assay
Vero-E6 cell line = test: Toxicity evaluation on Vero-E6 cell line; type: cell-based; conditions: Vero E6, 50 μM to 0.37 μM, 72 h post treatment
Protocol: Day 1: Cell were seeded in 96 wells plate, Vero E6, P40, 10000 cells/well. Growth conditions included medium DMEM high glucose.
Day 2: Compounds were diluted in a mix of 50% DMSO and 50% growth medium to. 10 mM concentration was used for PB28 (10 mg vial from Tocris, 1-Cyclohexyl-4-(3-(5-methoxy-1,2,3,4-tetrahydronaphthalen-1-yl)-n-propyl)piperazine dihydrochloride, see Gordon et al. Nature 2020, 583, […]). Other compounds were prepared at 2 mM concentration stock solution. Cells were treated from 50 μM to 0.37 μM by serial dilution two-fold dilution in triplicate. Controls were designed to include the same concentration of DMSO for each tested products.
Day 5: For a 72 h post treatment, cells were fixed with formalin and stained with Hoetsch33342. Cells were imaged using a Cell Insight CX7 high content screening microscope. Number of cells and nuclear parameters were assessed using an internal cytotoxicity testing protocol.

α1d (h) [4] = biological target: T2, α1d (h); test: α1D adrenergic antagonist effect assay; type: cell-based; conditions: CHO cells
α1a (h) [5] = biological target: T3, α1a (h); test: α1A adrenergic antagonist effect assay; type: cell-based; conditions: for pIC50: antagonist effect, CHO cells; for inhibition at 1 µM: α1A(h) antagonist effect, read-out: % inhibition of control values (1 μM)
Protocol: Assays for determining the antagonist effect on α1A (h) were performed according to the procedure described in Example 21, and the results are represented in Table E below. […] No antagonist effect is observed for the other compounds.

Sigma 2 (h) = Sigma 2 (h) (Homo sapiens (Human), UniProt Q5BJF2); test: Sigma-2 binding assay
Protocol: as §1

α1b (h) [6] = biological target: T1, α1b (h); test: α1B adrenergic agonist effect assay; type: cell-based; conditions: CHO cells
5HT2A = 5HT2A (Homo sapiens (Human), UniProt P28223); test: 5HT2A agonist effect assay; type: cell-based; conditions: for activation at 0.1 µM: 100 nM, read-out: % stimulation relative to control (100 nM); for activation at 1 µM: read-out: % stimulation relative to control (1 μM)
Protocol: Assays for determining the agonist effect on 5HT2A were performed according to the procedure described in Example 21, and the results are represented in Table F below. The compounds in Table F have no agonist effect on 5HT2A at 1 μM and 100 nM.

dopamine D2S receptor = dopamine D2S receptor (Homo sapiens (Human), UniProt P14416); test: Dopamine D2S receptor binding assay (Eurofins Cerep item 1322); conditions: [3H]7-OH-DPAT, read-out: % inhibition of control specific binding (1 μM)
Protocol: Assays for determining dopamine D2S receptor binding values were performed according to Eurofins Cerep protocol item 1322 and the results are represented in Table C below. The parameters used for the assay are described below. […] Common antipsychotics, in contrast, block dopamine receptors (Keefe, et al., J Clin Psychiatry. 2018; 79 (3): 17m11753).

[7] = [3H](+)pentazocine, Jurkat cells, read-out: Sigma-1 Ki
[8] = [3H]DTG (+1 μM (+)pentazocine), Jurkat cells, read-out: Sigma-2 Ki

Sequence of sigma 1 (h) (Q99720 whole entry): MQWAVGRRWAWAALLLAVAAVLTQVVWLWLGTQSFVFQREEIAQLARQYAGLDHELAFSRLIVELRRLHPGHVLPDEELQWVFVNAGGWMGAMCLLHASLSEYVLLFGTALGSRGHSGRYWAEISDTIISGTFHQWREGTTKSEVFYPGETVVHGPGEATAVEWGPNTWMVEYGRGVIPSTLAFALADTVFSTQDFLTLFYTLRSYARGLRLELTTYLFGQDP
T3 sequence (P35348 whole entry): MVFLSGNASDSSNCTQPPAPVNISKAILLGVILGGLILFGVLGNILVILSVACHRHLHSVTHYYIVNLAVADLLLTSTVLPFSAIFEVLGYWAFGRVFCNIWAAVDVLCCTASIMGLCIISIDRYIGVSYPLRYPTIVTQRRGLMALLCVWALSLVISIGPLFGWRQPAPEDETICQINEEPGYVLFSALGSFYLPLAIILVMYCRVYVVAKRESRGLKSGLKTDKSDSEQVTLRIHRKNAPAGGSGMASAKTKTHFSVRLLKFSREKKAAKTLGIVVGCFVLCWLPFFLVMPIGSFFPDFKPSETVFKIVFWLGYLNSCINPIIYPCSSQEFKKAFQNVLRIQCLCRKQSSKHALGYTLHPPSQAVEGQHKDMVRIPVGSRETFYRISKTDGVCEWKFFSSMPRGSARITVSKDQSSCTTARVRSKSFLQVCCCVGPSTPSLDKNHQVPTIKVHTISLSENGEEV
T1 sequence (P35368 whole entry): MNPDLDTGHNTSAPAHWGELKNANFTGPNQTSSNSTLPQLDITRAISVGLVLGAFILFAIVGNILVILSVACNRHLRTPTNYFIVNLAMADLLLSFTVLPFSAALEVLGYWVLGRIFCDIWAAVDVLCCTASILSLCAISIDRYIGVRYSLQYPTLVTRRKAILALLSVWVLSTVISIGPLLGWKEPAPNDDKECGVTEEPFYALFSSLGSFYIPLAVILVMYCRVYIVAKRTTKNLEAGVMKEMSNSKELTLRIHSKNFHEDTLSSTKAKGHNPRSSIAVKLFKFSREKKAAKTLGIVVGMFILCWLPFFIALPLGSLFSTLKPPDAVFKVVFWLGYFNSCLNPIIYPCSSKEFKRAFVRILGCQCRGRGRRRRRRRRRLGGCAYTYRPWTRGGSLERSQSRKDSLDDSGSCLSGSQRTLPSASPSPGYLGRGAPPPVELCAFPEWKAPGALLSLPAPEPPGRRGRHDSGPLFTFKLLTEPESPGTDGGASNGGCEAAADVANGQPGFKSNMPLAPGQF
T2 sequence (P25100 whole entry): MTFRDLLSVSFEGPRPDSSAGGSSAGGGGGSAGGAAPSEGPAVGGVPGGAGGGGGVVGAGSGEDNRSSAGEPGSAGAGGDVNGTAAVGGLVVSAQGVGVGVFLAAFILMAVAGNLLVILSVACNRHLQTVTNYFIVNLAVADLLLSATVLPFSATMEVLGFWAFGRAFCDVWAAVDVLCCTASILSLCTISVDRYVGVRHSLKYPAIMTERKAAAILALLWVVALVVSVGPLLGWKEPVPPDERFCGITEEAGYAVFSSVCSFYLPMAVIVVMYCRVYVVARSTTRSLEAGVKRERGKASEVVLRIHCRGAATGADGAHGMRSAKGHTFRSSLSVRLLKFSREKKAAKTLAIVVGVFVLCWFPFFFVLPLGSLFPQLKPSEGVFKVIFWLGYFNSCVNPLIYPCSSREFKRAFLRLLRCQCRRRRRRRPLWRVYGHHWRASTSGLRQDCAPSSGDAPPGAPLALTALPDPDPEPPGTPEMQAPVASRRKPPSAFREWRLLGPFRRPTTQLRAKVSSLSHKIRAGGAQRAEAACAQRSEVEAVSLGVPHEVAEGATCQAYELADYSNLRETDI
Sequence of hERG (Q12809 whole entry): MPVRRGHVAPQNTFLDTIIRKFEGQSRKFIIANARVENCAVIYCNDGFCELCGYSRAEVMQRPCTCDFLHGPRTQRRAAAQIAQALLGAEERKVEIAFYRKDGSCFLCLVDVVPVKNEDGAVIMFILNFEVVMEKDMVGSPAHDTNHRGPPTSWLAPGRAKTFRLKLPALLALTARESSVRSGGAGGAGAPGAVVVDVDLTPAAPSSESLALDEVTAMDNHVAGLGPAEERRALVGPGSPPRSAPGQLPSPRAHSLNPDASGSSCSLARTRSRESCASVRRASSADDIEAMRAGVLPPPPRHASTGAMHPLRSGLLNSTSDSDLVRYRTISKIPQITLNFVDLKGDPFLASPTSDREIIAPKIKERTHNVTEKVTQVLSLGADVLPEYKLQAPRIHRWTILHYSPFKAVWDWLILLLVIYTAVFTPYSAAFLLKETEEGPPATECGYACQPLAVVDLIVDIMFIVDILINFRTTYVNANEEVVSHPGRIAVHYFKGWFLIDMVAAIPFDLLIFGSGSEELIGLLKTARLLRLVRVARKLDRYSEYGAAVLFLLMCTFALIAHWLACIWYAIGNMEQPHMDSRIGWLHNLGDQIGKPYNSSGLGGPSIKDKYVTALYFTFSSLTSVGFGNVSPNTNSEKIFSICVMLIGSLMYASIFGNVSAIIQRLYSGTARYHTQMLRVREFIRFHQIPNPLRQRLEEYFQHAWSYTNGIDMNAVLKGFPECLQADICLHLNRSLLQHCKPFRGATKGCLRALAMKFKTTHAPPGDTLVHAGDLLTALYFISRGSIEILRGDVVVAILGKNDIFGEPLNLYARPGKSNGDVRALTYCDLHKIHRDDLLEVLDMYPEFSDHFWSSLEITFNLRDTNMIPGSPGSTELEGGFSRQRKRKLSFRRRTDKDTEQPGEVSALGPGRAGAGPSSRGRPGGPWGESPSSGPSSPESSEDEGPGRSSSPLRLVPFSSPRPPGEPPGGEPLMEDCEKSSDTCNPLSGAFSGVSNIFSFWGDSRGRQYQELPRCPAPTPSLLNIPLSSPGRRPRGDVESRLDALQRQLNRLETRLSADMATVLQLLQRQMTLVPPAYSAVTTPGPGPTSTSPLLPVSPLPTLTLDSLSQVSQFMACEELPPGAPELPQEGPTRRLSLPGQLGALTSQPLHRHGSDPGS
Sequence of Sigma 2 (h) (Q5BJF2 whole entry): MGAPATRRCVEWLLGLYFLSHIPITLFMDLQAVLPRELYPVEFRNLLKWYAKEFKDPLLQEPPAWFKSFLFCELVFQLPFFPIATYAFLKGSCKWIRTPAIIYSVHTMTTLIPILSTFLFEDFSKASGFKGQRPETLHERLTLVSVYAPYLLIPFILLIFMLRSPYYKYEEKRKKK
Sequence of 5-HT2A (h) (P28223 whole entry): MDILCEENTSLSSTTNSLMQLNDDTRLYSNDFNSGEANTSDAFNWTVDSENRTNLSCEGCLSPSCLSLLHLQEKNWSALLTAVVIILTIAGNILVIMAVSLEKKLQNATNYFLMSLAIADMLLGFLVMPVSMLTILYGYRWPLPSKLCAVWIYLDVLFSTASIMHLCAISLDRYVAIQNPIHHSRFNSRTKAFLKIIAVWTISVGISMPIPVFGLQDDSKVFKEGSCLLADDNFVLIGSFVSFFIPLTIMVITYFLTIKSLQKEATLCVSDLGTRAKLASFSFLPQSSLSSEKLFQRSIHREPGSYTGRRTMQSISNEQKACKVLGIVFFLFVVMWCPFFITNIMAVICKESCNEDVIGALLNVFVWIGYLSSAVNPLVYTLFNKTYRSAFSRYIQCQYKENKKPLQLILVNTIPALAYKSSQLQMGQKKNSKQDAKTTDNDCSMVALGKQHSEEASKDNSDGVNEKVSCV
Sequence of dopamine D2S receptor (P14416 other isoform, or with tags, fused parts or gaps): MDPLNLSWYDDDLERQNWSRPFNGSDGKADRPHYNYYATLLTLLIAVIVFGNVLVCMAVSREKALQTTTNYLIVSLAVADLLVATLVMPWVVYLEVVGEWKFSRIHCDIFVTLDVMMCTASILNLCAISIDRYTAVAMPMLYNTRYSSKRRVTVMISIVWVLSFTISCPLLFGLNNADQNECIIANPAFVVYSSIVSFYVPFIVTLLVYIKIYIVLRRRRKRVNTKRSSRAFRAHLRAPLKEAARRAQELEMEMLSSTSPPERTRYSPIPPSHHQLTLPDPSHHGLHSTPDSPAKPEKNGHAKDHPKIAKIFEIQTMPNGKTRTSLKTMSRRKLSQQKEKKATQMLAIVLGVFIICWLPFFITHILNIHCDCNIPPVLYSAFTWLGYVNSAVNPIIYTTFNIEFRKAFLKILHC

CCCN1CCN(c2ccc3c(c2)CN(C(=O)OCc2ccccc2)CC3(C)C)CC1 [Compound 2, benzyl 4,4-dimethyl-7-(4-propylpiperazin-1-yl)-3,4-dihydroisoquinoline-2(1H)-carboxylate]
pIC50 (α1b (h) [1]): < 6.00 | pIC50 (α1d (h) [2]): < 6.00 | pKi (sigma 1 (h); [7]): 7.30 to 8.30 | pIC50 (α1a (h) [3]): < 6.00 | pIC50 (5-HT2A (h)): < 6.00 | pIC50 (hERG): < 5.52 | cytotoxicity (cell number) (Vero-E6 cell line): not cytotoxic | pIC50 (α1d (h) [4]): < 6.00 | pIC50 (α1a (h) [5]): < 6.00 | pKi (Sigma 2 (h); [8]): 7.30 to 8.30 | pIC50 (α1b (h) [6]): < 6.00

CC1(C)CCN(C2CCCC2)Cc2cc(-c3ccc(C(F)(F)F)cc3)ccc21 [Compound 10, 2-cyclopentyl-5,5-dimethyl-8-(4-(trifluoromethyl)phenyl)-2,3,4,5-tetrahydro-1H-benzo[c]azepine]
pIC50 (α1b (h) [1]): < 6.00 | pIC50 (α1d (h) [2]): < 6.00 | pKi (sigma 1 (h)): < 6.30 | pIC50 (α1a (h) [3]): < 6.00 | pIC50 (5-HT2A (h)): < 6.00 | pIC50 (hERG): < 5.52 | pIC50 (α1d (h) [4]): < 6.00 | pIC50 (α1a (h) [5]): < 6.00 | pKi (Sigma 2 (h)): 7.30 to 8.30 | pIC50 (α1b (h) [6]): < 6.00

CC(C)OC(=O)N1CCC(C)(C)c2ccc(N3CCN(C4CCCC4)CC3)cc2C1 [Compound 79, isopropyl 8-(4-cyclopentylpiperazin-1-yl)-5,5-dimethyl-1,3,4,5-tetrahydro-2H-benzo[c]azepine-2-carboxylate]
activation at 0.1 µM (5HT2A): 1% | activation at 1 µM (5HT2A): 0% | pKi (sigma 1 (h); [7]): 8.30 to 10.00 | activation at 1 µM (α1a (h) [3]): 0% | pIC50 (hERG): < 5.52 | inhibition at 1 µM (dopamine D2S receptor): 19% | inhibition at 1 µM (α1a (h) [5]): 13% | pKi (Sigma 2 (h); [8]): 7.30 to 8.30

CC1(C)CCN(S(=O)(=O)c2cccc(Cl)c2)Cc2cc(N3CCC(N4CCOCC4)CC3)ccc21 [Compound 80, 4-(1-(2-((3-chlorophenyl)sulfonyl)-5,5-dimethyl-2,3,4,5-tetrahydro-1H-benzo[c]azepin-8-yl)piperidin-4-yl)morpholine]
activation at 0.1 µM (5HT2A): 0% | activation at 1 µM (5HT2A): 1% | pKi (sigma 1 (h); [7]): 8.30 to 10.00 | activation at 1 µM (α1a (h) [3]): 0% | pIC50 (hERG): < 5.52 | inhibition at 1 µM (dopamine D2S receptor): 4% | inhibition at 1 µM (α1a (h) [5]): 15% | pKi (Sigma 2 (h); [8]): 7.00 to 7.30
